Here are results for 17 molecules from patent publication US20260159512A1, “BCAT2 INHIBITORS” (AGIOS PHARMACEUTICALS, INC., priority 2021, published 2026).

The structures appear in SMILES notation. pIC50: −log10 of the molar value.

What all share (conditions): average where tested multiple times
One assay has as its target T1, hBCAT1 (Homo sapiens, UniProt P54687).
T1 sequence (P54687 1-386): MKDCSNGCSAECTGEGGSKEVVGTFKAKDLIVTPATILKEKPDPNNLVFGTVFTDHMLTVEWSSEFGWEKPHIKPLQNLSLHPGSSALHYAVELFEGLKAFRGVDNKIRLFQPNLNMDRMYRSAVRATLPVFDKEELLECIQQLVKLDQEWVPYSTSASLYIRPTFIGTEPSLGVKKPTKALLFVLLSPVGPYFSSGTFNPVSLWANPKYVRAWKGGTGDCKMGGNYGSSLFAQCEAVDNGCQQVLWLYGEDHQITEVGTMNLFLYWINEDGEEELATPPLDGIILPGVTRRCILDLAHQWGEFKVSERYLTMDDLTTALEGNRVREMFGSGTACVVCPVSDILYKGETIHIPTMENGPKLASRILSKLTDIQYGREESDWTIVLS
As to the kind of experiment: BCAT1 in vitro enzyme inhibition assay (resazurin/diaphorase-coupled fluorescence). The class given is biochemical. An outline of the steps: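 Human BCAT1 activity read by resazurin/diaphorase-coupled fluorescence. Compounds added from 50× DMSO stocks at 1:50, giving 10-point 3-fold titrations from 100 μM top final concentration. Run in technical duplicate; repeat tests averaged.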
In general terms: Resazurin is reduced to fluorescent resorufin, in cell work by metabolically active cells.

Assay [1] has as its target T2, BCAT2 (Homo sapiens, UniProt O15382).
T2 sequence (O15382 28-392): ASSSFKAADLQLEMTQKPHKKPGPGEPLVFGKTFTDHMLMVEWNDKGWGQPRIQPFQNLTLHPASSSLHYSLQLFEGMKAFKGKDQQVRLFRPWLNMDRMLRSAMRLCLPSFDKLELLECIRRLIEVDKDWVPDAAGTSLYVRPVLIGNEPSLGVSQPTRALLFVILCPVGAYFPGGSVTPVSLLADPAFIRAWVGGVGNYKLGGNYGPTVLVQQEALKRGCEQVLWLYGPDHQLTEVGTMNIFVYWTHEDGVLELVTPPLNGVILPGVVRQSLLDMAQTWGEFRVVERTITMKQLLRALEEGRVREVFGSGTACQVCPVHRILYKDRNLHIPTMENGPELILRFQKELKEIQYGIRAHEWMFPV
As to the kind of experiment: BCAT2 in vitro enzyme inhibition assay (resazurin/diaphorase-coupled fluorescence). The class given is biochemical. An outline of the steps:
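Coupled fluorescence readout: glutamate formed from L-leucine/α-ketoglutarate transamination drives GDH/NAD/diaphorase reduction of resazurin (Ex 540/Em 590). Human BCAT2 was first exposed 1 h at room temperature to compound, top final 100 μM in 3-fold, 10-point series; substrate reaction ran 1 h before SDS quench, in technical duplicate with DMSO max and enzyme-free min controls.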

Assay [2] has as its target T2, BCAT2. The experiment in a line: BCAT2 in vitro cell inhibition using engineered A549 cells (KMV cell assay, 13C6-KMV by LC-MS/MS). Set-up: The result was an engineered A549 cell line that expressed endogenous BCAT2; endogenous in cells; host or cells: A549 cells with MUT and BCAT1 knocked out by CRISPR/CAS9. The class given is cell-based.

By pIC50 is commonly meant the IC50 on a negative log10 scale, so that one unit is a factor of ten. Take `O=C(N[C@@H]1CCCC[C@H](n2c(-c3ccccc3F)nc3cnc(-c4nnc[nH]4)cc32)C1)c1ncc(Cl)s1` (single isomer, unassigned) [Example 87, 5-chloro-N-(3-(2-(2-fluorophenyl)-6-(4H-1,2,4-triazol-3-yl)-1H-imidazo[4,5-c]pyridin-1-yl)cycloheptyl)thiazole-2-carboxamide]: the figures for the negative logarithm of the IC50 (pIC50) against hBCAT1, against BCAT2 [1] and at BCAT2 [2] were 5.30 to 6.00, not below 7.00 and 6.30 to 7.00, respectively.

For the molecule `CC(C)Cc1nc2cnc(-c3ccccn3)cc2n1[C@@H]1C[C@@H](O)C[C@H](NC(=O)c2ncc(Cl)s2)C1` (single isomer, unassigned) [Example 214], the negative logarithm of the IC50 (pIC50) against hBCAT1 is more than 6.30; against BCAT2 [1] it was not below 7.00; against BCAT2 [2] it was not below 7.00.

With `COC(c1nc2cnc(-c3nc[nH]n3)cc2n1[C@@H]1CCC[C@H](NC(=O)c2ncc(Cl)s2)C1)C(C)C` (stereo partly drawn) [Example 314, 5-chloro-N-((1S,3R)-3-(2-(1-methoxy-2-methylpropyl)-6-(1H-1,2,4-triazol-3-yl)-1H-imidazo[4,5-c]pyridin-1-yl)cyclohexyl)thiazole-2-carboxamide], the negative-log IC50 (pIC50) at hBCAT1 is more than 6.30; at BCAT2 [1], not below 7.00; at BCAT2 [2] it was 6.30 to 7.00.

Consider `COc1cccc(F)c1-c1nc2cnc(-c3nc[nH]n3)cc2n1[C@@H]1CCC[C@H](NC(=O)c2ccc(Cl)s2)C1` [Example 347, 5-chloro-N-((1S,3R)-3-(2-(2-fluoro-6-methoxyphenyl)-6-(1H-1,2,4-triazol-3-yl)-1H-imidazo[4,5-c]pyridin-1-yl)cyclohexyl)thiophene-2-carboxamide], for which the negative logarithm of the IC50 (pIC50) against hBCAT1 was more than 6.30; at BCAT2 [1], not below 7.00; against BCAT2 [2], not below 7.00.

For the molecule `O=C(N[C@H]1CCC[C@@H](n2c(-c3ccccn3)nc3cnc(-n4cccn4)cc32)C1)c1ccc(Br)s1` [Example 30, N-((1S,3R)-3-(6-(1H-pyrazol-1-yl)-2-(pyridin-2-yl)-1H-imidazo[4,5-c]pyridin-1-yl)cyclohexyl)-5-bromothiophene-2-carboxamide], the pIC50 on hBCAT1 was 5.30 to 6.00; against BCAT2 [1], not below 7.00; against BCAT2 [2] it was 6.00 to 6.30.

In the case of `O=C(N[C@H]1CCC[C@@H](n2c(-c3ccccc3F)nc3cnc(-n4nccn4)cc32)C1)c1ncc(C(F)F)s1` [Example 25, 5-(difluoromethyl)-N-((1S,3R)-3-(2-(2-fluorophenyl)-6-(2H-1,2,3-triazol-2-yl)-1H-imidazo[4,5-c]pyridin-1-yl)cyclohexyl)thiazole-2-carboxamide], the results for the negative-log IC50 (pIC50) against hBCAT1, at BCAT2 [1] and at BCAT2 [2] were more than 6.30, not below 7.00 and not below 7.00, respectively.

Regarding `CC(C)Cc1nc2cnc(-c3nc[nH]n3)cc2n1[C@@H]1CCC[C@H](NC(=O)c2ncc(C#N)s2)C1` [Example 349, 5-cyano-N-((1S,3R)-3-(2-isobutyl-6-(1H-1,2,4-triazol-3-yl)-1H-imidazo[4,5-c]pyridin-1-yl)cyclohexyl)thiazole-2-carboxamide], the values for the pIC50 on hBCAT1, on BCAT2 [1] and on BCAT2 [2] were more than 6.30, not below 7.00 and 6.30 to 7.00, respectively.

For `CC(C)Cc1nc2cnc(-c3ccn(C)n3)cc2n1[C@@H]1CCC[C@H](NC(=O)c2ncc(Cl)s2)[C@H]1O` [Example 223, 5-chloro-N-((1S,2R,3R)-2-hydroxy-3-(2-isobutyl-6-(1-methyl-1H-pyrazol-3-yl)-1H-imidazo[4,5-c]pyridin-1-yl)cyclohexyl)thiazole-2-carboxamide], the pIC50 was more than 6.30 against hBCAT1, not below 7.00 at BCAT2 [1] and 6.30 to 7.00 against BCAT2 [2].

With `O=C(N[C@H]1CCC[C@@H](n2c(-c3c(O)cccc3F)nc3cnc(-c4nc[nH]n4)cc32)C1)c1ncc(Cl)s1` [Example 339, 5-chloro-N-((1S,3R)-3-(2-(2-fluoro-6-hydroxyphenyl)-6-(1H-1,2,4-triazol-3-yl)-1H-imidazo[4,5-c]pyridin-1-yl)cyclohexyl)thiazole-2-carboxamide], the figures for the pIC50 on hBCAT1, against BCAT2 [1] and at BCAT2 [2] were more than 6.30, not below 7.00 and not below 7.00, respectively.

With `CC(C)Cc1nc2cnc(-c3ccccn3)cc2n1[C@@H]1CCC[C@H](NC(=O)c2ncc(Cl)s2)[C@H]1O` [Example 235, 5-chloro-N-((1S,2R,3R)-2-hydroxy-3-(2-isobutyl-6-(pyridin-2-yl)-1H-imidazo[4,5-c]pyridin-1-yl)cyclohexyl)thiazole-2-carboxamide], the pIC50 against hBCAT1 was more than 6.30; against BCAT2 [1], not below 7.00; on BCAT2 [2], not below 7.00.

For `O=C(N[C@H]1CCC[C@@H](n2c(-c3ncccc3F)nc3cnc(-c4ccn[nH]4)cc32)C1)c1ccc(Cl)s1` [Example 78, 5-chloro-N-((1S,3R)-3-(2-(3-fluoropyridin-2-yl)-6-(1H-pyrazol-5-yl)-1H-imidazo[4,5-c]pyridin-1-yl)cyclohexyl)thiophene-2-carboxamide], the negative-log IC50 (pIC50) against hBCAT1 was more than 6.30; at BCAT2 [1], not below 7.00; on BCAT2 [2] it was not below 7.00.

As for `O=C(N[C@H]1CCC[C@@H](n2c(-c3ccccc3F)nc3cnc(O[C@H]4CCOC4)cc32)C1)c1ncc(Cl)s1` [Example 267, 5-chloro-N-((1S,3R)-3-(2-(2-fluorophenyl)-6-(((S)-tetrahydrofuran-3-yl)oxy)-1H-imidazo[4,5-c]pyridin-1-yl)cyclohexyl)thiazole-2-carboxamide], the results for the pIC50 at hBCAT1, against BCAT2 [1] and against BCAT2 [2] were more than 6.30, 6.30 to 7.00 and 6.30 to 7.00, respectively.

Consider `O=C(N[C@H]1CCC[C@@H](n2c(-c3c(O)cccc3F)nc3cnc(-c4nc[nH]n4)cc32)C1)c1ccc(Cl)s1` [Example 338, 5-chloro-N-((1S,3R)-3-(2-(2-fluoro-6-hydroxyphenyl)-6-(1H-1,2,4-triazol-3-yl)-1H-imidazo[4,5-c]pyridin-1-yl)cyclohexyl)thiophene-2-carboxamide], for which the pIC50 was more than 6.30 against hBCAT1, not below 7.00 on BCAT2 [1] and not below 7.00 on BCAT2 [2].

Consider `CC(C)Cc1nc2cnc(-c3nc[nH]n3)cc2n1[C@@H]1C[C@@H](O)C[C@H](NC(=O)c2ncc(Cl)s2)C1` [Example 256, 5-chloro-N-((1R,3S,5S)-3-hydroxy-5-(2-isobutyl-6-(1H-1,2,4-triazol-3-yl)-1H-imidazo[4,5-c]pyridin-1-yl)cyclohexyl)thiazole-2-carboxamide], for which the pIC50 against hBCAT1 is more than 6.30; against BCAT2 [1] it was not below 7.00; on BCAT2 [2], not below 7.00.

On to `O=C(N[C@H]1CCC[C@@H](n2c(-c3ccccn3)nc3cnc(-n4nccn4)cc32)C1)c1ncc(C(F)F)s1` [Example 21, 5-(difluoromethyl)-N-((1S,3R)-3-(2-(pyridin-2-yl)-6-(2H-1,2,3-triazol-2-yl)-1H-imidazo[4,5-c]pyridin-1-yl)cyclohexyl)thiazole-2-carboxamide], for which the values for the pIC50 on hBCAT1, at BCAT2 [1] and against BCAT2 [2] were 6.00 to 6.30, not below 7.00 and 6.30 to 7.00, respectively.

As to `N#CC1CC(NC(=O)c2ncc(Cl)s2)CC(n2c(-c3ccccc3F)nc3cnc(-c4nc[nH]n4)cc32)C1` (single isomer, unassigned) [Example 451, 5-chloro-N-(3-cyano-5-(2-(2-fluorophenyl)-6-(1H-1,2,4-triazol-3-yl)-1H-imidazo[4,5-c]pyridin-1-yl)cyclohexyl)thiazole-2-carboxamide], the pIC50 against hBCAT1 is more than 6.30; on BCAT2 [1] it was not below 7.00; on BCAT2 [2] it was 6.30 to 7.00.

`CC(C)(C)Cc1nc2cnc(-c3ccccn3)cc2n1[C@@H]1CCC[C@H](NC(=O)c2ncc(Cl)s2)C1` [Example 381, 5-chloro-N-((1S,3R)-3-(2-neopentyl-6-(pyridin-2-yl)-1H-imidazo[4,5-c]pyridin-1-yl)cyclohexyl)thiazole-2-carboxamide]: the pIC50 was 5.30 to 6.00 at hBCAT1, not below 7.00 against BCAT2 [1] and 6.30 to 7.00 against BCAT2 [2].
